According to ChEMBL document CHEMBL1130170, “Orally active trifluoromethyl ketone inhibitors of human leukocyte elastase” (J Med Chem, 1997):
Where a SMILES comes first, the peptide text is derived from it. [ ]: non-standard residue; d: D form. The star is where a group is joined. ξ: configuration not given here. Cbz = O=C(OCc1ccccc1)*; ξV = CC(C)C(N)C(=O)O; CF3 = FC(F)(F)*; Moc = COC(=O)*

What was measured:
Cricetinae gen. sp. [1] = assay: Percent inhibition of elastase-induced lung damage by 10 mg/kg dosed orally, 30 minutes prior to the instillation of 50 ug of elastase; assay type: functional, Cricetulus griseus; conditions: Cricetinae gen. sp., po
Neutrophil elastase = biological target: T1, Neutrophil elastase (Homo sapiens, UniProt P08246); assay: Binding affinity for human leukocyte elastase
T1 sequence (P08246 whole entry): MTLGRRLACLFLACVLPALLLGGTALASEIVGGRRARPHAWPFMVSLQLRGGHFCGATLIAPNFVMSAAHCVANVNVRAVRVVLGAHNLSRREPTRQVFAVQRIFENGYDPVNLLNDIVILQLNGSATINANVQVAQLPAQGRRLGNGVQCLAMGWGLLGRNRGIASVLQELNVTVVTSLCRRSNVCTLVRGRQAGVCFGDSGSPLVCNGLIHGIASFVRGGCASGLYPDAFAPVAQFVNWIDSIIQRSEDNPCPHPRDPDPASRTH

Cricetinae gen. sp. [2] = assay: Effective dose in the Acute Hemarrhagic Assay model after oral administration; assay type: functional, Cricetulus griseus

Row | Compound | inhibition in vivo at 10 mg/kg (Cricetinae gen. sp. [1]) | Ki (Neutrophil elastase) | ED50 (Cricetinae gen. sp. [2])
1 | CNC(=O)C(F)(F)C(=O)[C@@H](NC(=O)[C@@H]1CCCN1C(=O)[C@@H](NC(=O)OCc1ccccc1)C(C)C)C(C)C | 7% | – | –
2 | CCCCOC(=O)NCC(F)(F)C(=O)[C@@H](NC(=O)[C@@H]1CCCN1C(=O)[C@@H](NC(=O)Oc1ccccc1)C(C)C)C(C)C | 0% | 0.35 nM | –
3 | CC(C)[C@H](NC(=O)OCc1ccccc1)C(=O)N1CCC[C@H]1C(=O)N[C@H](C(=O)C(F)(F)C(N)=O)C(C)C | 17% | – | –
4 | CC(C)[C@H](NC(=O)Oc1ccccc1)C(=O)N1CCC[C@H]1C(=O)N[C@H](C(=O)C(F)(F)F)C(C)C | 93% | 1.5 nM | –
5 | COC(=O)c1ccc2oc(C(=O)[C@@H](NC(=O)[C@@H]3CCCN3C(=O)[C@@H](NC(=O)c3ccc(OC)cc3)C(C)C)C(C)C)nc2c1 | 0% | 0.65 nM | –
6 | COC(=O)N[C@H](C(=O)N1CCC[C@H]1C(=O)NC(C(=O)C(F)(F)F)C(C)C)C(C)C (stereo partly drawn) (Moc-Val-Pro-[ξV]-CF3) | 92% | – | –
7 | COc1ccc(C(=O)N[C@H](C(=O)N2CCC[C@H]2C(=O)N[C@H](C(=O)c2nc3cc(NC(C)=O)ccc3o2)C(C)C)C(C)C)cc1 | 11% | 8 nM | –
8 | COc1ccc(C(=O)N[C@H](C(=O)N2CCC[C@H]2C(=O)N[C@H](C(=O)C(F)(F)C(=O)NCc2ccccn2)C(C)C)C(C)C)cc1 | 43% | 3.1 nM | –
9 | CC(C)[C@H](NC(=O)COc1ccccc1)C(=O)N1CCC[C@H]1C(=O)N[C@H](C(=O)C(F)(F)F)C(C)C | 8% | 17 nM | –
10 | CC(C)[C@H](NC(=O)OCc1ccccc1)C(=O)N1CCC[C@H]1C(=O)N[C@H](C(=O)C(F)(F)F)C(C)C (Cbz-Val-Pro-Val-CF3) | 42% | – | –
11 | COc1ccc(C(=O)N[C@H](C(=O)N2CCC[C@H]2C(=O)N[C@H](C(=O)C(F)(F)CNCc2ccccc2)C(C)C)C(C)C)cc1 | 17% | – | –
12 | COC(=O)c1ccc2oc(C(=O)[C@@H](NC(=O)[C@@H]3CCCN3C(=O)[C@@H](NC(=O)OCc3ccccc3)C(C)C)C(C)C)nc2c1 | 34% | 0.58 nM | –
13 | CNC(=O)C(F)(F)C(=O)[C@@H](NC(=O)[C@@H]1CCCN1C(=O)[C@@H](NC(=O)c1ccc(OC)cc1)C(C)C)C(C)C | 25% | 3.8 nM | –
14 | CC(C)[C@H](NC(=O)c1ccc(C(=O)NS(=O)(=O)c2ccccc2)cc1)C(=O)N1CCC[C@H]1C(=O)N[C@H](C(=O)C(F)(F)C(=O)NCCc1ccccc1)C(C)C | – | 0.06 nM | –
15 | CC(C)[C@H](NC(=O)Oc1ccccc1)C(=O)N1CCC[C@H]1C(=O)N[C@H](C(=O)C(F)(F)CN)C(C)C | 45% | – | –
16 | CC(C)[C@H](NC(=O)[C@@H]1CCCN1C(=O)[C@@H](NC(=O)OCc1ccccc1)C(C)C)C(=O)c1nc2ccccc2o1 | 0% | 4.7 nM | –
17 | CCCNC(=O)C(F)(F)C(=O)[C@@H](NC(=O)[C@@H]1CCCN1C(=O)[C@@H](NC(=O)c1ccc(OC)cc1)C(C)C)C(C)C | 17% | 8.9 nM | –
18 | CC(=O)NCC(F)(F)C(=O)[C@@H](NC(=O)[C@@H]1CCCN1C(=O)[C@@H](NC(=O)Oc1ccccc1)C(C)C)C(C)C | 42% | 2.3 nM | –

Row | Compound | inhibition in vivo at 10 mg/kg (Cricetinae gen. sp. [1]) | Ki (Neutrophil elastase) | ED50 (Cricetinae gen. sp. [2])
19 | COC(=O)c1ccc2oc(C(=O)[C@@H](NC(=O)[C@@H]3CCCN3C(=O)[C@@H](NC(=O)Oc3ccccc3)C(C)C)C(C)C)nc2c1 | 12% | 0.64 nM | –
20 | COc1ccc(C(=O)N[C@H](C(=O)N2CCC[C@H]2C(=O)N[C@H](C(=O)C(F)(F)CNC(=O)c2ccccc2)C(C)C)C(C)C)cc1 | 18% | 6.4 nM | –
21 | CCCCOC(=O)NCC(F)(F)C(=O)[C@@H](NC(=O)[C@@H]1CCCN1C(=O)[C@@H](NC(=O)OCc1ccccc1)C(C)C)C(C)C | 0% | 1.1 nM | –
22 | CC(C)OC(=O)N[C@H](C(=O)N1CCC[C@H]1C(=O)N[C@H](C(=O)C(F)(F)F)C(C)C)C(C)C | 80% | 5.8 nM | 3 mg/kg
23 | CC(C)OC(=O)N[C@H](C(=O)N1CCC[C@H]1C(=O)NC(C(=O)C(F)(F)F)C(C)C)C(C)C (stereo partly specified) | 69% | 33 nM | –
24 | COc1ccc(C(=O)N[C@H](C(=O)N2CCC[C@H]2C(=O)N[C@@H](C(=O)C(F)(F)C(=O)NCc2ccccn2)C(C)C)C(C)C)cc1 | 31% | 58 nM | –
25 | CC(C)[C@H](NC(=O)Oc1ccccc1)C(=O)N1CCC[C@H]1C(=O)N[C@H](C(=O)C(F)(F)C(=O)NCc1ccccn1)C(C)C | 69% | 1.7 nM | –
26 | CCCCOC(=O)NCC(F)(F)C(=O)[C@@H](NC(=O)[C@@H]1CCCN1C(=O)[C@@H](NC(=O)c1ccc(OC)cc1)C(C)C)C(C)C | 24% | 3.4 nM | –
27 | CC(C)[C@H](NC(=O)Oc1ccccc1)C(=O)N1CCC[C@H]1C(=O)N[C@H](C(=O)C(F)(F)CNC(=O)c1cccnc1)C(C)C | 46% | 0.35 nM | –
28 | CNC(=O)C(F)(F)C(=O)[C@@H](NC(=O)[C@@H]1CCCN1C(=O)[C@@H](NC(=O)Oc1ccccc1)C(C)C)C(C)C | 80% | – | –
29 | CC(C)[C@H](NC(=O)Oc1ccccc1)C(=O)N1CCC[C@H]1C(=O)N[C@H](C(=O)C(F)(F)CNCc1ccccc1)C(C)C | 18% | – | –
30 | COC(=O)c1ccc2nc(C(=O)[C@@H](NC(=O)[C@@H]3CCCN3C(=O)[C@@H](NC(=O)Oc3ccccc3)C(C)C)C(C)C)oc2c1 | 27% | 0.64 nM | –
31 | CCOC(=O)N[C@H](C(=O)N1CCC[C@H]1C(=O)N[C@H](C(=O)C(F)(F)F)C(C)C)C(C)C | 74% | 43 nM | –
32 | CC(C)[C@H](NC(=O)OC1CCCC1)C(=O)N1CCC[C@H]1C(=O)N[C@H](C(=O)C(F)(F)F)C(C)C | 43% | 1.9 nM | –
33 | CC(C)[C@H](NC(=O)OCc1ccccc1)C(=O)N1CCC[C@H]1C(=O)N[C@H](C(=O)C(F)(F)CNCc1ccccc1)C(C)C | 0% | – | –
34 | COc1ccc(C(=O)N[C@H](C(=O)N2CCC[C@H]2C(=O)N[C@H](C(=O)C(F)(F)CN)C(C)C)C(C)C)cc1 | 10% | – | –
35 | COc1ccc(C(=O)N[C@H](C(=O)N2CCC[C@H]2C(=O)N[C@H](C(=O)C(F)(F)F)C(C)C)C(C)C)cc1 (stereo in doubt; 1a) | 70% | – | –
36 | CC(C)COC(=O)N[C@H](C(=O)N1CCC[C@H]1C(=O)N[C@H](C(=O)C(F)(F)F)C(C)C)C(C)C | 3% | 20 nM | –
